The target of experiment [1] is T1, Serine/threonine-protein kinase B-raf (Homo sapiens, UniProt P15056).
Description: Inhibition bRaf kinase activity
The target of experiment [2] is T1, Serine/threonine-protein kinase B-raf. The source holds these as a separate data set.
Description: Binding affinity at bRaf kinase in fluorescent ligand displacement assay
Experiment [3] deals with AMP-activated protein kinase, AMPK (Homo sapiens) (UniProt P54646+O43741+P54619+Q9UGJ0+Q9Y478+Q13131+Q9UGI9). Briefly: Inhibition of AMPK activity at 10 uM. It counts as protein-complex assay.
The target of experiment [4] is Rho-associated protein kinase 2 (Homo sapiens) (UniProt O75116). The experiment can be described thus: Inhibition of ROCK2 activity at 10 uM.
In experiment [5] the target is cAMP-dependent protein kinase (PKA) (Homo sapiens) (UniProt P22694+P17612+P22612). Briefly: Inhibition of PKA activity at 10 uM. It counts as protein assay.
The target in experiment [6] is MAP kinase-activated protein kinase 5 (Homo sapiens) (UniProt Q8IW41). Briefly: Inhibition of PRAK activity at 10 uM.
Experiment [7] concerns the target Serine/threonine-protein kinase Chk1 (Homo sapiens) (UniProt O14757). The experiment can be described thus: Inhibition of CHK1 activity at 10 uM.
Experiment [8] has as its target Mitogen-activated protein kinase 13 (Homo sapiens) (UniProt O15264). Briefly: Inhibition of p38delta MAPK activity at 10 uM.
Experiment [9] concerns the target Mitogen-activated protein kinase 12 (Homo sapiens) (UniProt P53778). The experiment can be described thus: Inhibition of p38-gamma MAPK activity at 10 uM.
In experiment [10] the target is RAC-alpha serine/threonine-protein kinase (Homo sapiens) (UniProt P31749). Briefly: Inhibition of PKBalpha activity at 10 uM.
In experiment [11] the target is Mitogen-activated protein kinase 11 (Homo sapiens) (UniProt Q15759). The experiment can be described thus: Inhibition of p38-beta MAPK activity at 10 uM.
The target in experiment [12] is Ribosomal protein S6 kinase (P70S6K) (Homo sapiens) (UniProt Q9UBS0+P23443). Briefly: Inhibition of p70S6K activity at 10 uM. It counts as protein-complex assay.
Experiment [13] concerns the target MAP kinase-activated protein kinase 2 (Homo sapiens) (UniProt P49137). The experiment can be described thus: Inhibition of MAPKAPK2 activity at 10 uM.
Experiment [14] deals with Tyrosine-protein kinase Lck (Homo sapiens) (UniProt P06239). The experiment can be described thus: Inhibition of Lck activity at 10 uM.
In experiment [15] the target is Ribosomal protein S6 kinase alpha-5 (Homo sapiens) (UniProt O75582). The experiment can be described thus: Inhibition of MSK1 activity at 10 uM.
In experiment [16] the target is Protein kinase C alpha type (Homo sapiens) (UniProt P17252). Briefly: Inhibition of PKCalpha activity at 10 uM.
The target in experiment [17] is Serine/threonine-protein kinase Sgk1 (Homo sapiens) (UniProt O00141). The experiment can be described thus: Inhibition of SGK activity at 10 uM.
Experiment [18] addresses Mitogen-activated protein kinase 1 (Homo sapiens) (UniProt P28482). The experiment can be described thus: Inhibition of MAPK2 activity at 10 uM.
Experiment [19] addresses Phosphorylase kinase (Homo sapiens) (UniProt P15735+P46020+P46019+Q93100+Q16816). Briefly: Inhibition of phosphorylase kinase activity at 10 uM. It counts as protein-complex assay.
The target in experiment [20] is Casein kinase II (Homo sapiens) (UniProt P67870+P68400+P19784). The experiment can be described thus: Inhibition of CK2 activity at 10 uM. It counts as protein-complex assay.
The target in experiment [21] is Dual specificity mitogen-activated protein kinase kinase 1 (Homo sapiens) (UniProt Q02750). The experiment can be described thus: Inhibition of MEK1 activity at 10 uM.
Experiment [22] addresses Mitogen-activated protein kinase 8 (Homo sapiens) (UniProt P45983). Briefly: Inhibition of JNK1 activity at 10 uM.
Experiment [23] has as its target Glycogen synthase kinase-3 beta (Homo sapiens) (UniProt P49841). Briefly: Inhibition of GSK3-beta activity at 10 uM.

T1 sequence (P15056 whole entry): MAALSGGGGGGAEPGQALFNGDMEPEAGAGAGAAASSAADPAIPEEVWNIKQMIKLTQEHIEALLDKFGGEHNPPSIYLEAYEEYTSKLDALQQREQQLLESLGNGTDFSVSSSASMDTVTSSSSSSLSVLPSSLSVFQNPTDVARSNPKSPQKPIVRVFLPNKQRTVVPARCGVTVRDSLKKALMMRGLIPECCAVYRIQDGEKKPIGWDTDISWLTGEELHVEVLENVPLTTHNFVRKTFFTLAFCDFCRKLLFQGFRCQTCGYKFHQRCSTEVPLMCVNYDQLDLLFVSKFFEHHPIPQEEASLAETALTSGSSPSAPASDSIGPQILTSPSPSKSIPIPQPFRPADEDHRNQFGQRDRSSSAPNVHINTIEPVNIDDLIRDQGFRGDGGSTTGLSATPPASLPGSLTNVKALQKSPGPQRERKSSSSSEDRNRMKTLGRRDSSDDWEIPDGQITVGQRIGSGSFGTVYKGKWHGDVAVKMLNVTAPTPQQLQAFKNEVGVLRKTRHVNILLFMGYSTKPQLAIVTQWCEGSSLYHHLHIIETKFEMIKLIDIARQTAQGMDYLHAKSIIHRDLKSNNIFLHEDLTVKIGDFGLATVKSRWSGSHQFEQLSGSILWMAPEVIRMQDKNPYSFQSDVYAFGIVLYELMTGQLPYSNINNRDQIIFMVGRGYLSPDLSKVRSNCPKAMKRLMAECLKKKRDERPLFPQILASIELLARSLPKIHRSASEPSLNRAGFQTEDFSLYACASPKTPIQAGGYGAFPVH
Serine/threonine-protein kinase Chk1 (Homo sapiens), sequence (O14757 whole entry): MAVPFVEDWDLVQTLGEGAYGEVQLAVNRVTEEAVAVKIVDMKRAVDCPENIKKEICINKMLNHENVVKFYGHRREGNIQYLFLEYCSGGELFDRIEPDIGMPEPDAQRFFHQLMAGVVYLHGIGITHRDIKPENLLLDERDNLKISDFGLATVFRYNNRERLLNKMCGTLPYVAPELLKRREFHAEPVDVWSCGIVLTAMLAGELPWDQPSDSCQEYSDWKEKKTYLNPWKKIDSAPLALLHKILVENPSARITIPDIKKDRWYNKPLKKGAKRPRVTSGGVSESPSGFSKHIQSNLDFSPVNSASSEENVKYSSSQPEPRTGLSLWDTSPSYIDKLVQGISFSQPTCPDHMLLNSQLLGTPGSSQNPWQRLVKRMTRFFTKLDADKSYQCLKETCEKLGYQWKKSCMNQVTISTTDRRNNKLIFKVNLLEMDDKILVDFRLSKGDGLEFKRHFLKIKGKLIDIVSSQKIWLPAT
MAP kinase-activated protein kinase 2 (Homo sapiens), sequence (P49137 whole entry, looked up): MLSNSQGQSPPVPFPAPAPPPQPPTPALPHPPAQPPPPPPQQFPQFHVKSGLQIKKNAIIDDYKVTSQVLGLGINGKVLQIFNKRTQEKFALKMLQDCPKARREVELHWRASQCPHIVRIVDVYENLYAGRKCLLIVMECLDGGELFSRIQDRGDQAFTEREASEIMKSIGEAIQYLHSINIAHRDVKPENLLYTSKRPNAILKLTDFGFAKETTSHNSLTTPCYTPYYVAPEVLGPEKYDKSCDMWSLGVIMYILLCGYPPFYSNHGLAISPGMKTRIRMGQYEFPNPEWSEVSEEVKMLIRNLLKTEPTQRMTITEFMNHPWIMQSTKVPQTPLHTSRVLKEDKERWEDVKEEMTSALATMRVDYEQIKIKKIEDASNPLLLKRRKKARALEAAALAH
Serine/threonine-protein kinase Sgk1 (Homo sapiens), sequence (O00141 whole entry): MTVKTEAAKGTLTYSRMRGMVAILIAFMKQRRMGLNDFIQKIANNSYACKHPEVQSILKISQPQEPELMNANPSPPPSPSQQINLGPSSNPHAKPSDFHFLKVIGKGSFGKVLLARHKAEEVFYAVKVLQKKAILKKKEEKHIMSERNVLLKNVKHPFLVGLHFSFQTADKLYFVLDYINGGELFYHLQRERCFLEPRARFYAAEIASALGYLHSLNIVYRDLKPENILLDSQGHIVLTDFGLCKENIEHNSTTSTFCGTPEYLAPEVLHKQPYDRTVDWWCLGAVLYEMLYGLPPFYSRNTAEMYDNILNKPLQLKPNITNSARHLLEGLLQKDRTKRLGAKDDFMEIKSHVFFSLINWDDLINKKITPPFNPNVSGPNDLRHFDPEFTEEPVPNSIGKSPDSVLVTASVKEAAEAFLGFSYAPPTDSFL
Mitogen-activated protein kinase 1 (Homo sapiens), sequence (P28482 whole entry): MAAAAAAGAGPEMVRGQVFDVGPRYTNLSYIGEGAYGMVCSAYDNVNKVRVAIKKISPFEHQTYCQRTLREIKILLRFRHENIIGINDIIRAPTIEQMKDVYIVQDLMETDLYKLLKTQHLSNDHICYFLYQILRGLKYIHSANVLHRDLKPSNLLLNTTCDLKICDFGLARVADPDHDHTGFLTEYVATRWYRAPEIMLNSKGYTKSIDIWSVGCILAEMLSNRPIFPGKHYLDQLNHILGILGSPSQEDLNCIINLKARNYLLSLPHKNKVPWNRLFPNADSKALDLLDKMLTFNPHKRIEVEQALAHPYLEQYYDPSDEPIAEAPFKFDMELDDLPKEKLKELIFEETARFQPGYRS
Mitogen-activated protein kinase 11 (Homo sapiens), sequence (Q15759 whole entry): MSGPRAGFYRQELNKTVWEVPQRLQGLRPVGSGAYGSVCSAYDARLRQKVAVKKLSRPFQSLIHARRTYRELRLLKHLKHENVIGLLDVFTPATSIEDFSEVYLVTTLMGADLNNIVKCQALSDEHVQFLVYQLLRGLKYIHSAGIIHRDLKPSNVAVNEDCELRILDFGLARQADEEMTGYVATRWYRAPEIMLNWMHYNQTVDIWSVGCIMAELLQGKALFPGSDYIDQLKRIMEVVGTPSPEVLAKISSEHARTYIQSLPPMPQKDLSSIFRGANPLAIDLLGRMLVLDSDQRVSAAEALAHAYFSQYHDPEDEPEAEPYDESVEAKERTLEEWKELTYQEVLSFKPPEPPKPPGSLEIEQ
MAP kinase-activated protein kinase 5 (Homo sapiens), sequence (Q8IW41 whole entry): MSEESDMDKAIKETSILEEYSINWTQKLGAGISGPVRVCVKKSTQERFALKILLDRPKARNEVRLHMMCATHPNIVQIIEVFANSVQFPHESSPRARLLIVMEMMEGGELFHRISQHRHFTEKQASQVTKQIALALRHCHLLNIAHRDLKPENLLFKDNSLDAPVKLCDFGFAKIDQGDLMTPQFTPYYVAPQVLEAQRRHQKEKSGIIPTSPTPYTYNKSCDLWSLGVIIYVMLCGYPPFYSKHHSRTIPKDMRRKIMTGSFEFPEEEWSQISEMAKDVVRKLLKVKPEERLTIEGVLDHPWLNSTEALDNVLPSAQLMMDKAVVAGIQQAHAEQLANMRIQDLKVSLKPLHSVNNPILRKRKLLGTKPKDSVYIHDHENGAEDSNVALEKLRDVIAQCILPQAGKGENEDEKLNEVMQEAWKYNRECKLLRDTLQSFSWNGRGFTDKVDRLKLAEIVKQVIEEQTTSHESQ
RAC-alpha serine/threonine-protein kinase (Homo sapiens), sequence (P31749 whole entry): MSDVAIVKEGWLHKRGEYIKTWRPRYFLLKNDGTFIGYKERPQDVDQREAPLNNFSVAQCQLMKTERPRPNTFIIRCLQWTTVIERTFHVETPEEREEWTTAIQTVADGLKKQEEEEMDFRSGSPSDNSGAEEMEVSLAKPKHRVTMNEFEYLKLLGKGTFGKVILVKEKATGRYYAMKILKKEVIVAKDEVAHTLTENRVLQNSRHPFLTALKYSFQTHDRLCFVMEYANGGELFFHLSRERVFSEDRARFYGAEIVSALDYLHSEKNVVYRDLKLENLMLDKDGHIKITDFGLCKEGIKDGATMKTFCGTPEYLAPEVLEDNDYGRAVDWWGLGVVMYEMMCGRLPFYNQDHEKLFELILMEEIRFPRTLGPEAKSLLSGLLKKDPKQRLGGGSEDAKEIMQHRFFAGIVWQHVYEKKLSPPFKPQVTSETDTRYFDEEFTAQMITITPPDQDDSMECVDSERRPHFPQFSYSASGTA
Glycogen synthase kinase-3 beta (Homo sapiens), sequence (P49841 whole entry, looked up): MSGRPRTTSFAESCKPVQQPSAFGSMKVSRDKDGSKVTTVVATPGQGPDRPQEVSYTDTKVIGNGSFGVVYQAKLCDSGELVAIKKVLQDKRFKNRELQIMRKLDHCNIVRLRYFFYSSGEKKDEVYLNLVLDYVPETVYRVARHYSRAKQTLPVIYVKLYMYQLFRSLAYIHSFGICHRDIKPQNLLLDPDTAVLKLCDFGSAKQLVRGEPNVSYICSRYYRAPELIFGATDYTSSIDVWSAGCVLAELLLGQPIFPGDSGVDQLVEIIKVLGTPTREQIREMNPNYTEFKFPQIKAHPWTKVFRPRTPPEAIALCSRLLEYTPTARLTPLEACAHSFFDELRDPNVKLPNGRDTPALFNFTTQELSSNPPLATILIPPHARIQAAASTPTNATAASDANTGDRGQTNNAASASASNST
Dual specificity mitogen-activated protein kinase kinase 1 (Homo sapiens), sequence (Q02750 whole entry): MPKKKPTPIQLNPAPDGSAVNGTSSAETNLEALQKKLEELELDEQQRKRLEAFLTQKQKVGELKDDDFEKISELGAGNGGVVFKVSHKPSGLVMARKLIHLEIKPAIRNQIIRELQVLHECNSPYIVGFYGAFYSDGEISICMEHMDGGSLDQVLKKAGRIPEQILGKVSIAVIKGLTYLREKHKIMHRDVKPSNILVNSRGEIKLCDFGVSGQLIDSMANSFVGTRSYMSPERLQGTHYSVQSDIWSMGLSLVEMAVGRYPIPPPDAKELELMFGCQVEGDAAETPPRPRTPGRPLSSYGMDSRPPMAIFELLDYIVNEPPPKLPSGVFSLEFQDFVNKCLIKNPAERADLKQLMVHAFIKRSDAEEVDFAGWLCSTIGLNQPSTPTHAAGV
Mitogen-activated protein kinase 12 (Homo sapiens), sequence (P53778 whole entry): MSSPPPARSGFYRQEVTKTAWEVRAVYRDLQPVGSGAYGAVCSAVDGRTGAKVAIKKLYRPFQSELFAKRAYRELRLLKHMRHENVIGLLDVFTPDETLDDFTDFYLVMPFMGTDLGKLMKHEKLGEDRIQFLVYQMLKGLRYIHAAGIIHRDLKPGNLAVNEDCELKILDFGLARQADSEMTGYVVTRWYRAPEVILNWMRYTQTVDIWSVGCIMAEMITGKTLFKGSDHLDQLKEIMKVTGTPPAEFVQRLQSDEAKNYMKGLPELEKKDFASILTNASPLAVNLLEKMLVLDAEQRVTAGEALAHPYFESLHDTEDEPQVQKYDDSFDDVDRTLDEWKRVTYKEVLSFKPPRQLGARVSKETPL

With `Oc1cc(-c2[nH]c(-c3cccnc3)nc2-c2ccncc2)ccc1Cl`, the half-inhibitory concentration (IC50) in experiment [1] worked out at 6 nM.

With `N=C(NO)c1ccc(-c2[nH]c(-c3ccccc3)nc2-c2ccncc2)cc1`, binding in experiment [2] was put at a Kd of 53 nM.

As to `Oc1cccc(-c2nc(-c3ccccc3)[nH]c2-c2ccncc2)c1`, the equilibrium dissociation constant (Kd) in [2] was determined as 8 nM.

`COc1cccc(-c2nc(-c3ccccc3)[nH]c2-c2ccncc2)c1` gave an equilibrium dissociation constant (Kd) in experiment [2] of more than 196 nM.

Take `O/N=C/c1ccc(-c2[nH]c(-c3ccccc3)nc2-c2ccncc2)cc1Cl`: the affinity in experiment [2], expressed as Kd, was 6 nM.

As for `OCc1ccc(-c2[nH]c(-c3ccccc3)nc2-c2ccncc2)cc1`, in experiment [2], binding was put at a Kd of 71 nM.

On to `OC1CCc2cc(-c3[nH]c(-c4ccccc4)nc3-c3ccncc3)ccc21` (stereo not given), for which, in experiment [2], the Kd was more than 200 nM.

Molecule `Oc1cc(-c2[nH]c(-c3ccccc3)nc2-c2ccncn2)ccc1Cl` registered a Kd in experiment [2] of 14 nM.

In turn, `OCc1ccc(-c2[nH]c(-c3ccccc3)nc2-c2ccncc2)cc1O` gave a dissociation constant (Kd) in experiment [2] of 22 nM.

Turning to `O/N=C/c1ccc(-c2[nH]c(-c3ccccc3)nc2-c2ccncc2)cc1`, in experiment [2], the dissociation constant (Kd) worked out at 5 nM.

In experiment [2], `CN(C)CCCNC(=O)c1nc(-c2ccncc2)c(-c2ccc(Cl)c(O)c2)[nH]1` displayed an equilibrium dissociation constant (Kd) of 24 nM. In addition, the IC50 in experiment [1] came out at 40 nM.

Regarding `Oc1ccc(-c2nc(-c3ccccc3)[nH]c2-c2ccncc2)cc1`, in experiment [2], binding was put at a Kd of 316 nM. In addition, the IC50 in [1] was found to be 339 nM.

Turning to `C/C(=N\O)c1ccc(-c2[nH]c(-c3ccccc3)nc2-c2ccncc2)cc1`, the Kd in experiment [2] turned out to be 11 nM.

In turn, `CC(C)(CN)c1nc(-c2ccc(Cl)c(O)c2)c(-c2ccncc2)[nH]1` gave a dissociation constant Kd in experiment [2] of 4.8 nM. For the same molecule, the IC50 in [1] came to 6 nM.

Consider `CN(C)CCOc1ccc(-c2nc(-c3ccncc3)c(-c3ccc4c(c3)CC/C4=N\O)[nH]2)cc1`, for which the inhibition in experiment [3] is 14%; in experiment [4] it was 26%; in [5], -2%; in experiment [6], 18%; in experiment [7], 9%; in experiment [8] it was 10%. Also, the inhibition in experiment [9] stood at 10%; in [10], 8%; in experiment [11], 9%; in [12], 13%; in [13] it was 9%; in [14], 39%. For the same molecule, the inhibition was found to be 38% in experiment [15]; 10% in experiment [16]; 17% in experiment [17]; 11% in [18]; 3% in [19]; 8% in [20]. Also, the inhibition in experiment [21] was 14%; in experiment [22] it was 19%; in [23], 25%.

`CC(C)(CNS(C)(=O)=O)c1nc(-c2ccc(Cl)c(O)c2)c(-c2ccncc2)[nH]1`: binding in [2] was characterised by a dissociation constant (Kd) of 10 nM. The molecule further showed an IC50 in [1] of 14 nM.

`Oc1cc(-c2[nH]c(-c3ccco3)nc2-c2ccncc2)ccc1Cl` yielded a Kd in experiment [2] of 4.2 nM. This molecule yielded an IC50 in experiment [1] of 13 nM.

`CC(C)(CNC(=O)Nc1ccc(Cl)cc1)c1nc(-c2ccc(Cl)c(O)c2)c(-c2ccncc2)[nH]1` gave a Kd in experiment [2] of 21 nM. This molecule also returned a concentration for half-maximal inhibition (IC50) in experiment [1] of 13 nM.

The molecule `CC(C)(C)c1nc(-c2ccncc2)c(-c2ccc(F)cc2)[nH]1` had an IC50 in experiment [1] of 900 nM.

As for `OCc1cccc(-c2[nH]c(-c3ccccc3)nc2-c2ccncc2)c1`, the equilibrium dissociation constant (Kd) in experiment [2] was more than 196 nM. In addition, the IC50 in [1] is 1590 nM.

In [2], `O/N=C1/CCCc2cc(-c3[nH]c(-c4ccccc4)nc3-c3ccncc3)ccc21` came in with a dissociation constant Kd of 17 nM.

In experiment [2], `Oc1cc(-c2[nH]c(-c3ccccc3)nc2-c2ccccc2)ccc1Cl` came in with a Kd of more than 200 nM.

Turning to `Oc1cc(-c2[nH]c(-c3ccccc3)nc2-c2cccnc2)ccc1Cl`, the Kd in [2] was more than 200 nM.

`O/N=C/c1ccc(-c2[nH]c(-c3ccccc3)nc2-c2ccncc2)cc1O`: the Kd in experiment [2] came out at 27 nM.

In [2], `OCc1ccc(-c2[nH]c(-c3ccccc3)nc2-c2ccncc2)cc1Cl` had a Kd of 132 nM.

Take `Oc1cc(-c2[nH]c(-c3ccccc3)nc2-c2ccnnc2)ccc1Cl`: in experiment [2], the Kd was 87 nM.

For `Nc1nccc(-c2[nH]c(-c3ccccc3)nc2-c2ccc(Cl)c(O)c2)n1`, in experiment [2], the Kd turned out to be 5.7 nM.

On to `Oc1cc(-c2nc(-c3ccccc3)[nH]c2-c2ccncc2)ccc1Cl`, for which the inhibition in experiment [3] came out at 12%; in experiment [4], 3%; in experiment [5] it was 12%; in experiment [6], 19%; in experiment [7], 1%; in experiment [9] it was 5%. The inhibition is 44% in experiment [10]; 81% in experiment [11]; 26% in [12]; -1% in experiment [13]; 88% in [14]; 7% in [15]. Besides, the inhibition in experiment [16] is 2%; in [17], 2%; in [18] it was -3%; in experiment [19] it was 17%; in [20] it was -3%; in experiment [21], 5%. Moreover, the values for the inhibition in experiment [22] and in experiment [23] were 0% and 83%, respectively. This molecule also came in with a Kd in [2] of 2.4 nM. In experiment [1], this molecule returned an IC50 of 10 nM.

Consider `CC(C)(C)c1nc(-c2ccncc2)c(-c2ccc(Cl)c(O)c2)[nH]1`, for which, in [2], the Kd came out at 2 nM. This molecule returned an IC50 in [1] of 12 nM.

`Oc1cc(-c2[nH]cnc2-c2ccncc2)ccc1Cl`: binding in experiment [2] was characterised by a dissociation constant (Kd) of 39 nM. Further, in [1], the IC50 stood at 33 nM.

As usually defined, the IC50 is the concentration at which inhibition is half-maximal. The low end stands for greater potency in that assay, the high end for weaker potency in that assay. One may read the Kd as the concentration at which binding is half-saturated. Low readings indicate higher affinity, high ones lower affinity. Usually inhibition stands for the change of the read-out against control, counted positive when it falls.

The values above are taken from ChEMBL document CHEMBL1147772, “The identification of potent and selective imidazole-based inhibitors of B-Raf kinase” (Bioorg Med Chem Lett, 2006).
